Assay results reported in ChEMBL document CHEMBL4627407, “Identification of a Potent Oridonin Analogue for Treatment of Triple-Negative Breast Cancer” (J Med Chem, 2020).

Assays:
DU-4475 [1] = experiment: Antiproliferative activity against human DU4475 cells after 72 hrs by MTT assay; format: functional, cell-based; conditions: DU-4475, 72 h
HCC1806 [2] = experiment: Antiproliferative activity against human HCC1806 cells after 72 hrs by MTT assay; format: functional, cell-based; conditions: HCC1806, 72 h
MDA-MB-468 [3] = experiment: Antiproliferative activity against human MDA-MB-468 cells after 72 hrs by MTT assay; format: functional, cell-based; conditions: MDA-MB-468, 72 h
MDA-MB-231 [4] = experiment: Antiproliferative activity against human MDA-MB-231 cells after 72 hrs by MTT assay; format: functional, cell-based; conditions: MDA-MB-231, 72 h
DU-4475 [5] = experiment: Potency index, ratio of oridonin IC50 to compound IC50 for antiproliferative activity against human DU4475 cells after 72 hrs by MTT assay; format: functional
HCC1806 [6] = experiment: Potency index, ratio of oridonin IC50 to compound IC50 for antiproliferative activity against human HCC1806 cells after 72 hrs by MTT assay; format: functional
MDA-MB-468 [7] = experiment: Potency index, ratio of oridonin IC50 to compound IC50 for antiproliferative activity against human MDA-MB-468 cells after 72 hrs by MTT assay; format: functional
MDA-MB-231 [8] = experiment: Potency index, ratio of oridonin IC50 to compound IC50 for antiproliferative activity against human MDA-MB-231 cells after 72 hrs by MTT assay; format: functional
NCI/ADR-RES = experiment: Antiproliferative activity against human MCF7/ADR cells after 72 hrs by MTT assay; format: functional, cell-based
SK-BR-3 = experiment: Antiproliferative activity against human SK-BR-3 cells after 72 hrs by MTT assay; format: functional, cell-based; conditions: SK-BR-3, 72 h
T47D = experiment: Antiproliferative activity against human T47D cells after 72 hrs by MTT assay; format: functional, cell-based
MDA-MB-453 = experiment: Antiproliferative activity against human MDA-MB-453 cells after 72 hrs by MTT assay; format: functional, cell-based; conditions: MDA-MB-453, 72 h
HCC1937 = experiment: Antiproliferative activity against human HCC1937 cells after 72 hrs by MTT assay; format: functional, cell-based; conditions: HCC1937, 72 h

| Structure (SMILES) | IC50 (DU-4475 [1]) [nM] | IC50 (HCC1806 [2]) [nM] | IC50 (MDA-MB-468 [3]) [nM] | IC50 (MDA-MB-231 [4]) [nM] | Ratio IC50 (DU-4475 [5]) | Ratio IC50 (HCC1806 [6]) | Ratio IC50 (MDA-MB-468 [7]) | Ratio IC50 (MDA-MB-231 [8]) | IC50 (NCI/ADR-RES) [nM] | IC50 (SK-BR-3) [nM] | IC50 (T47D) [nM] | IC50 (MDA-MB-453) [nM] | IC50 (HCC1937) [nM] |
| --- | --- | --- | --- | --- | --- | --- | --- | --- | --- | --- | --- | --- | --- |
| C=C1C(=O)[C@]23[C@H](O)[C@H]1CC[C@H]2[C@]12C=CCC(C)(C)[C@H]1[C@H](O)[C@@]3(O)OC2 | 1610 | 2350 | 1440 | 2330 | 6 - 12 | 6 - 12 | 6 - 12 | 6 - 12 | – | – | – | – | – |
| C=C1C(=O)[C@]23[C@H](O)[C@H]1CC[C@H]2[C@]12CCCC(C)(C)[C@H]1[C@H](O)[C@@]3(O)OC2 | 2360 | 2390 | 2240 | 2960 | 6 - 12 | 6 - 12 | 6 - 12 | 6 - 12 | – | – | – | – | – |
| C=C1C(=O)[C@@]23C(=O)[C@@H]4OC[C@]5(C=CCC(C)(C)[C@@H]45)[C@@H]2CC[C@@H]1[C@H]3OC(=O)/C=C/c1ccnc(Cl)c1 | 1710 | 2090 | 1600 | 1350 | – | – | – | – | – | – | – | – | – |
| C=C1C(=O)[C@@]23C(=O)[C@@H]4OC[C@]5(C=CCC(C)(C)[C@@H]45)[C@@H]2CC[C@@H]1[C@H]3OC(=O)c1ccccc1 | 8500 | 7120 | 8960 | 7450 | – | – | – | – | – | – | – | – | – |
| C=C1C(=O)[C@@]23C(=O)[C@@H]4OC[C@]5(C=CCC(C)(C)[C@@H]45)[C@@H]2CC[C@@H]1[C@H]3OC(=O)c1ccccn1 | 780 | 710 | 1470 | 1120 | – | – | – | – | – | – | – | – | – |
| C=C1C(=O)[C@@]23C(=O)[C@@H]4OC[C@]5(C=CCC(C)(C)[C@@H]45)[C@@H]2CC[C@@H]1[C@H]3OC(=O)/C=C/c1ccc2occc2c1 | 2400 | 2050 | 2440 | 2160 | – | – | – | – | – | – | – | – | – |
| C=C1C(=O)[C@@]23C(=O)[C@@H]4OC[C@]5(C=CCC(C)(C)[C@@H]45)[C@@H]2CC[C@@H]1[C@H]3OC(=O)/C=C/c1ccsc1 | 2820 | 2740 | 3070 | 2180 | – | – | – | – | – | – | – | – | – |
| C=C1C(=O)[C@@]23C(=O)[C@@H]4OC[C@]5(C=CCC(C)(C)[C@@H]45)[C@@H]2CC[C@@H]1[C@H]3OC(=O)c1ccc(Cl)cc1 | 1950 | 1930 | 1880 | 1390 | – | – | – | – | – | – | – | – | – |
| C=C1C(=O)[C@@]23C(=O)[C@@H]4OC[C@@]5([C@H]4C(C)(C)CC[C@@H]5O)[C@@H]2CC[C@@H]1[C@H]3O | 1370 | 2420 | 2400 | 1680 | – | – | – | – | – | – | – | – | – |
| C=C1C(=O)[C@]23[C@H](O)[C@H]1CC[C@H]2[C@]12CCCC(C)(C)[C@H]1C[C@@]3(O)OC2 | 1880 | 2920 | 2450 | 3440 | – | – | – | – | – | – | – | – | – |
| C=C1C(=O)[C@@]23C(=O)[C@@H]4OC[C@]5(C=CCC(C)(C)[C@@H]45)[C@@H]2CC[C@@H]1[C@H]3OC(=O)/C=C/c1ccnc(OC)c1 | 1630 | 1930 | 1750 | 1420 | – | – | – | – | – | – | – | – | – |
| C=C1C(=O)[C@]23[C@H](O)[C@H]1CC[C@H]2[C@@]12CO[C@]3(O)[C@@H](O)[C@@H]1C(C)(C)CC[C@@H]2O [ORIDONIN] | 17000 | 21700 | 17300 | 17900 | – | – | – | – | 26200 | 8490 | 7560 | 6670 | 8270 |
| C=C1C(=O)[C@@]23C(=O)[C@@H]4OC[C@]5(C=CCC(C)(C)[C@@H]45)[C@@H]2CC[C@@H]1[C@H]3OC(=O)/C=C/c1ccncc1Cl | 860 | 820 | 850 | 640 | – | – | – | – | – | – | – | – | – |
| C=C1C(=O)[C@@]23C(=O)[C@@H]4OC[C@]5(C=CCC(C)(C)[C@@H]45)[C@@H]2CC[C@@H]1[C@H]3OC(=O)C1CC1 | 1060 | 1730 | 990 | 760 | – | – | – | – | – | – | – | – | – |
